Experimental data published in ChEMBL document CHEMBL1201862, “PubChem BioAssay data set” (2004).
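Dose response: 5 concentrations. Exposure: 48 h. Format: 96-well plates. Endpoint: linear interpolation; highest concentration if not reached. At the GI50, growth is halved.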 Calls of active or inactive are those of the source. Cut-off read from the data, not from the text of the source: active = GI50 up to about 1.1 µM and inactive = higher.

How the values were obtained:
Test in all cases: growth of human tumour cells (NCI), 48 h
MDA-N = tested on: MDA-N
LOX IMVI = tested on: LOX IMVI
ACHN = tested on: ACHN
PC-3 = tested on: PC-3
HCT-116 = tested on: HCT-116
Malme-3M = tested on: Malme-3M
TK-10 = tested on: TK-10
K562 = tested on: K562
T47D = tested on: T47D
SK-MEL-2 = tested on: SK-MEL-2
SR = tested on: SR
MDA-MB-435 = tested on: MDA-MB-435
NCI-H522 = tested on: NCI-H522
EKVX = tested on: EKVX
SF-295 = tested on: SF-295
HOP-62 = tested on: HOP-62
NCI-H460 = tested on: NCI-H460
KM12 = tested on: KM12
MCF7 = tested on: MCF7
KM-20L2 = tested on: KM-20L2

Compound	GI50 (MDA-N)	GI50 (LOX IMVI)	GI50 (ACHN)	GI50 (PC-3)	GI50 (HCT-116)	GI50 (Malme-3M)	GI50 (TK-10)	GI50 (K562)	GI50 (T47D)	GI50 (SK-MEL-2)	GI50 (SR)	GI50 (MDA-MB-435)	GI50 (NCI-H522)	GI50 (EKVX)	GI50 (SF-295)	GI50 (HOP-62)	GI50 (NCI-H460)	GI50 (KM12)	GI50 (MCF7)	GI50 (KM-20L2)
NC1=NC(c2ccc(Cl)cc2)N(c2ccc(S(N)(=O)=O)cc2)C(N)=N1 (configuration not stated)	> 100 µM (inactive)	> 100 µM (inactive)	> 100 µM (inactive)	> 100 µM (inactive)	> 100 µM (inactive)	> 100 µM (inactive)	> 100 µM (inactive)	> 100 µM (inactive)	> 100 µM (inactive)	> 100 µM (inactive)	> 100 µM (inactive)	> 100 µM (inactive)	> 100 µM (inactive)	> 100 µM (inactive)	> 100 µM (inactive)	> 100 µM (inactive)	> 100 µM (inactive)	> 100 µM (inactive)	> 100 µM (inactive)	–
C[n+]1ccc2[nH]c3ccccc3c2c1	–	> 100 µM (inactive)	> 100 µM (inactive)	–	48.6 µM (inactive)	35.6 µM (inactive)	> 100 µM (inactive)	> 100 µM (inactive)	–	> 100 µM (inactive)	–	–	> 100 µM (inactive)	> 100 µM (inactive)	> 100 µM (inactive)	> 52.8 µM (inactive)	> 77.4 µM (inactive)	77.1 µM (inactive)	–	> 100 µM (inactive)
Cc1sc2c(c1C)C(=O)c1cccn1-2	28.6 µM (inactive)	64.9 µM (inactive)	> 100 µM (inactive)	65.3 µM (inactive)	61.2 µM (inactive)	> 100 µM (inactive)	> 100 µM (inactive)	38.8 µM (inactive)	39.8 µM (inactive)	> 100 µM (inactive)	19.3 µM (inactive)	56.6 µM (inactive)	92 µM (inactive)	56.4 µM (inactive)	> 100 µM (inactive)	> 100 µM (inactive)	> 100 µM (inactive)	> 100 µM (inactive)	68.5 µM (inactive)	–
CN1C(c2ccccc2)CC(=Nc2ccccc2)CC1c1ccccc1 (configuration not stated)	–	4.48 µM (inactive)	–	–	4.91 µM (inactive)	10.8 µM (inactive)	19.2 µM (inactive)	13.2 µM (inactive)	–	–	10.9 µM (inactive)	–	4.65 µM (inactive)	16.2 µM (inactive)	15.6 µM (inactive)	18 µM (inactive)	13.5 µM (inactive)	–	–	13.3 µM (inactive)
Cc1cc(Cl)ccc1NC(=O)CC1SC(Nc2ccccc2Cl)=NC1=O (configuration not stated)	–	–	43.3 µM (inactive)	–	30.3 µM (inactive)	91.8 µM (inactive)	88.5 µM (inactive)	37.8 µM (inactive)	–	48.4 µM (inactive)	20.6 µM (inactive)	–	29.8 µM (inactive)	73.3 µM (inactive)	52.6 µM (inactive)	> 100 µM (inactive)	51.3 µM (inactive)	33.3 µM (inactive)	–	26.8 µM (inactive)
CC(C)(Cl)C(Cl)CC/C(CBr)=C(\Cl)CBr (configuration not stated)	1.81 µM (inactive)	0.209 µM (active)	3.66 µM (inactive)	3.15 µM (inactive)	2.23 µM (inactive)	2.11 µM (inactive)	1.95 µM (inactive)	0.586 µM (active)	1.96 µM (inactive)	1.67 µM (inactive)	0.443 µM (active)	2.37 µM (inactive)	0.55 µM (active)	16.5 µM (inactive)	6.49 µM (inactive)	2.24 µM (inactive)	2.71 µM (inactive)	2.08 µM (inactive)	2.49 µM (inactive)	–
N#CNCC(COCc1ccccc1)c1ccccc1 (configuration not stated)	–	> 100 µM (inactive)	> 100 µM (inactive)	–	> 100 µM (inactive)	> 100 µM (inactive)	> 100 µM (inactive)	40.3 µM (inactive)	–	43.5 µM (inactive)	–	–	> 100 µM (inactive)	> 100 µM (inactive)	–	> 100 µM (inactive)	> 100 µM (inactive)	–	–	> 100 µM (inactive)
O=C1CCc2cc3c(cc21)CC1(Cc2cc4c(cc2C1)CCCC4)C3	4.82 µM (inactive)	58.5 µM (inactive)	> 100 µM (inactive)	> 100 µM (inactive)	37.2 µM (inactive)	90.6 µM (inactive)	> 100 µM (inactive)	23.6 µM (inactive)	32.1 µM (inactive)	> 100 µM (inactive)	5.52 µM (inactive)	4.68 µM (inactive)	26 µM (inactive)	> 100 µM (inactive)	33.9 µM (inactive)	83.2 µM (inactive)	41.4 µM (inactive)	51.2 µM (inactive)	44.5 µM (inactive)	–
CCc1ccccc1NC(=O)C1=C(C)NC(C)=C(C(=O)Nc2ccccc2CC)C1c1ccccc1Cl	–	> 100 µM (inactive)	47.4 µM (inactive)	–	> 100 µM (inactive)	> 100 µM (inactive)	> 100 µM (inactive)	> 100 µM (inactive)	–	> 100 µM (inactive)	–	–	69.5 µM (inactive)	> 100 µM (inactive)	> 100 µM (inactive)	> 100 µM (inactive)	> 100 µM (inactive)	> 100 µM (inactive)	–	> 100 µM (inactive)
CN(/N=N/c1[nH]cnc1C(N)=O)C1CCCCC1	–	42.2 µM (inactive)	> 100 µM (inactive)	–	50.4 µM (inactive)	74.6 µM (inactive)	40 µM (inactive)	–	–	27.1 µM (inactive)	30.7 µM (inactive)	–	> 100 µM (inactive)	> 100 µM (inactive)	86.7 µM (inactive)	> 100 µM (inactive)	> 100 µM (inactive)	> 100 µM (inactive)	–	81.3 µM (inactive)
CCOC(=O)C(Sc1ccccc1)c1c(OC)cc(=O)oc1/C=[N+](/[O-])c1ccc(N(C)C)cc1 (configuration not stated)	–	13.4 µM (inactive)	> 10 µM (inactive)	–	–	17.2 µM (inactive)	35 µM (inactive)	6.81 µM (inactive)	–	24.9 µM (inactive)	–	–	–	33.3 µM (inactive)	24.4 µM (inactive)	66.4 µM (inactive)	27.9 µM (inactive)	21.7 µM (inactive)	–	31.8 µM (inactive)
C=C1CCC2C(C)(CO)C(O)CCC2(C)C1CC(O)/C(=C/CO)C(=O)O (configuration not stated)	–	> 100 µM (inactive)	> 100 µM (inactive)	–	> 100 µM (inactive)	> 100 µM (inactive)	> 100 µM (inactive)	> 100 µM (inactive)	–	> 100 µM (inactive)	> 100 µM (inactive)	–	> 100 µM (inactive)	–	> 100 µM (inactive)	> 100 µM (inactive)	> 100 µM (inactive)	> 100 µM (inactive)	–	> 100 µM (inactive)
NC(=O)c1ncn(CCN2CCN(C(=O)NCCCCCCNC(=O)N3CCN(CCn4cnc(C(N)=O)c4N)CC3)CC2)c1N	–	> 100 µM (inactive)	> 100 µM (inactive)	–	> 100 µM (inactive)	> 100 µM (inactive)	> 100 µM (inactive)	> 100 µM (inactive)	–	> 100 µM (inactive)	> 100 µM (inactive)	–	–	> 100 µM (inactive)	> 100 µM (inactive)	> 100 µM (inactive)	> 100 µM (inactive)	> 100 µM (inactive)	–	> 100 µM (inactive)
CC1=C(C(=O)Nc2ccccc2)C(c2ccccc2Cl)C(C(=O)Nc2ccccc2)=C(C)N1	–	18.6 µM (inactive)	30.5 µM (inactive)	–	22.6 µM (inactive)	20 µM (inactive)	38.7 µM (inactive)	38.6 µM (inactive)	–	18 µM (inactive)	25.8 µM (inactive)	–	19.6 µM (inactive)	14.3 µM (inactive)	25.4 µM (inactive)	20.1 µM (inactive)	–	–	–	22.2 µM (inactive)
Cc1nc2c(=O)n(C)c(=O)nc-2n(-c2ccc(Cl)cc2)c1C	–	–	58.6 µM (inactive)	–	–	> 100 µM (inactive)	> 100 µM (inactive)	41.7 µM (inactive)	–	> 100 µM (inactive)	–	–	> 100 µM (inactive)	> 100 µM (inactive)	> 100 µM (inactive)	> 100 µM (inactive)	> 100 µM (inactive)	> 100 µM (inactive)	–	46.7 µM (inactive)
COc1ccc(C(N)=O)c(OC)c1OCc1ccccc1	–	> 100 µM (inactive)	> 100 µM (inactive)	–	> 100 µM (inactive)	–	> 100 µM (inactive)	> 100 µM (inactive)	–	> 100 µM (inactive)	–	–	12.4 µM (inactive)	> 100 µM (inactive)	> 100 µM (inactive)	> 100 µM (inactive)	> 100 µM (inactive)	> 100 µM (inactive)	–	> 100 µM (inactive)
C[Si](C)(C)[C@@]1([Se]c2ccccc2)CC[C@@H]1C(=O)c1ccccc1	–	35.9 µM (inactive)	54 µM (inactive)	–	33.6 µM (inactive)	70 µM (inactive)	> 100 µM (inactive)	34.5 µM (inactive)	–	23.7 µM (inactive)	–	–	23.7 µM (inactive)	49.3 µM (inactive)	51.3 µM (inactive)	> 100 µM (inactive)	98.9 µM (inactive)	44.9 µM (inactive)	–	71.8 µM (inactive)
COc1cc(O)c2c(=O)c(OC)c(-c3ccc(OC)c(O)c3)oc2c1 [AYANIN]	73.1 µM (inactive)	20.7 µM (inactive)	33.1 µM (inactive)	30.8 µM (inactive)	32.1 µM (inactive)	24 µM (inactive)	17.6 µM (inactive)	60.5 µM (inactive)	3.83 µM (inactive)	> 100 µM (inactive)	22.1 µM (inactive)	34.7 µM (inactive)	29.1 µM (inactive)	62.5 µM (inactive)	7.78 µM (inactive)	31.5 µM (inactive)	14 µM (inactive)	35.7 µM (inactive)	15.5 µM (inactive)	–
